In US9394562B2, “Soil microorganism, novel oxidoreductase separated from the soil microorganism, gene encoding the oxidoreductase, and method for producing aglycones using the microorganism, the oxidoreductase and the gene” (AMOREPACIFIC CORPORATION, priority 2010, dated 2016):

How the values were obtained:
Type in all cases: biochemical
[1] = system: oxidoreductase enzyme derived from Rhizobium sp. GIN611; test: Deglycosylation activity for flavonoid glycoside substrates by MALDI mass spectrometry; details: flavonoid glycoside as substrate
Text: After reacting using ginsenoside Rh2, ginsenoside F2, ginsenoside Rb1, ginsenoside Rb2, ginsenoside Rc, ginsenoside Rb3, ginsenoside F1, ginsenoside Re or the isoflavone daidzin as a substrate, followed by extraction by adding the same volume of ethyl acetate, the ethyl acetate layer was dried and then dissolved again in ethanol, which was subjected to activity measurement by MALDI mass spectrometry.
The oxidoreductase enzyme derived from Rhizobium sp. GIN611, whose expression was induced, was reacted with the flavonoid icariin, camelliaside A or camelliaside B as a substrate in the manner described above and activity was measured by MALDI mass spectrometry. Oxidation of galactose attached to camelliaside A and deglycosylation activity thereof were identified. Also, oxidation of xylose attached to camelliaside B and deglycosylation activity thereof were identified. That is to say, the enzyme was confirmed to show deglycosylation activity for sugars attached to the flavonoid-based aglycones and to capable of degrading not only glucose but also galactose and xylose by oxidizing them (see FIGS. 12 and 13).

[2] = system: oxidoreductase enzyme derived from Rhizobium sp. GIN611; test: Substrate specificity for glycone binding (α-/β-bonding); details: nitrophenyl glycoside used as substrate of the enzyme
Text: Specificity of the enzyme for α-bonding and β-bonding was investigated using 4-nitrophenyl α-D-glucopyranoside, 4-nitrophenyl β-D-glucopyranoside, 4-nitrophenyl α-D-galactopyranoside and p-nitrophenyl β-D-galactopyranoside.

[3] = system: deglycosylating enzyme isolated from the selected Rhizobium sp. GIN611; test: Substrate specificity of deglycosylating enzyme isolated from Rhizobium sp. GIN611; details: ginsenoside as substrate
Text: Investigation of the substrate specificity using a deglycosylating enzyme isolated from the selected Rhizobium sp. […] The inventors of the present disclosure have disrupted and centrifuged the microorganism and produced a cell extract comprising the active enzyme from a supernatant.

Row | Relative activity (%) [2] [%] | SMILES | further results
1 | – | C[C@@H]1O[C@@H](OC[C@H]2O[C@@H](Oc3c(-c4ccc(O)cc4)oc4cc(O)cc(O)c4c3=O)[C@H](O[C@@H]3O[C@H](CO)[C@H](O)[C@H](O)[C@H]3O)[C@@H](O)[C@@H]2O)[C@H](O)[C@H](O)[C@H]1O [camelliaside A, kaempferol 3-O-(2-O-galactopyranosyl-6-O-rhamnopyranosyl)glucopyranoside] | oxidation of attached sugar and deglycosylation activity [1]: identified
2 | 103 | O=[N+]([O-])c1ccc(O[C@H]2O[C@H](CO)[C@@H](O)[C@H](O)[C@H]2O)cc1 [p-Nitrophenyl α-D-glucopyranoside] | –
3 | – | CC(C)=CCC[C@](C)(O[C@@H]1O[C@H](CO)[C@@H](O)[C@H](O)[C@H]1O)[C@H]1CC[C@]2(C)[C@@H]1[C@H](O)C[C@@H]1[C@@]3(C)CC[C@H](O)C(C)(C)[C@@H]3CC[C@]12C [ginsenoside CK, 20-O-β-D-glucopyranosyl-20(S)-protopanaxadiol] | activity for substrate [3]: high activity
4 | 400 | O=[N+]([O-])c1ccc(O[C@@H]2O[C@H](CO)[C@H](O)[C@H](O)[C@H]2O)cc1 [p-Nitrophenyl β-D-galactopyranoside] | –
5 | 100 | O=[N+]([O-])c1ccc(O[C@@H]2O[C@H](CO)[C@@H](O)[C@H](O)[C@H]2O)cc1 [p-Nitrophenyl β-D-glucopyranoside] | –
6 | 201 | O=[N+]([O-])c1ccc(O[C@H]2O[C@H](CO)[C@H](O)[C@H](O)[C@H]2O)cc1 [p-Nitrophenyl α-D-galactopyranoside] | –
7 | – | C[C@@H]1O[C@@H](OC[C@H]2O[C@@H](Oc3c(-c4ccc(O)cc4)oc4cc(O)cc(O)c4c3=O)[C@H](O[C@@H]3OC[C@@H](O)[C@H](O)[C@H]3O)[C@@H](O)[C@@H]2O)[C@H](O)[C@H](O)[C@H]1O [camelliaside B, kaempferol 3-O-(2-O-xylopyranosyl-6-O-rhamnopyranosyl)glucopyranoside] | oxidation of attached sugar and deglycosylation activity [1]: identified
